# According to patent US8367360B2, “Method of screening for inhibitors of tau protein phosphororylation by tyrosine kinase c-Abl” (Proteome Sciences plc, priority 2004, dated 2013):
# “Also recorded” adds a separate entry of the source.
# Experiments:
# [1] = system: primary rat neuronal cultures; assay: Amyloid beta treatment of neurons and isolation of lipid rafts; assay type: cell-based
# Protocol: Rat and human primary cortical neuronal cultures were treated with fibrillar Aβ25-35 or Aβ1-42 for 1-30 min. Lipid rafts were prepared from control untreated and Aβ-treated neuronal cultures by scraping the cells from one 80 cm^2 flask into 2 ml 1% Triton X-100 in 25 mM Mes, pH 6.5 containing protease inhibitors. Cells were disrupted by Dounce homgenization. The homogenate was mixed with 2 ml of 90% sucrose (w/v) in 25 mM Mes, 150 mM NaCl pH 6.5 and placed in a 12 ml centrifuge tube. A 5-35% step sucrose gradient was formed by overlaying the homogenate mix with 4 ml of a 35% (w/v) sucrose solution followed by 4 ml of a 5% (w/v) sucrose solution. This was then centrifuged at 39,000 rpm for 18 hr in a Beckman SW41 rotor. 1 ml fractions were collected from the top of each gradient. The lipid raft fraction partitioned at the interface between the 5% (w/v) sucrose layer and the 35% sucrose (w/v) layer, fractions 4 and 5. Lipid raft fractions were concentrated by mixing the raft fractions (4 and 5) with 10 ml dd H2O and centrifuging at 39,000 rpm for 2 h in a Beckman SW41 rotor. The supernatant was aspirated and the remaining pellet was resuspended in 100 μl of 2× sample buffer. Western blots of lipid raft proteins were probed for antibodies to flotillin and protein loading corrected by scanning densitometry. Tau was detected in lipid rafts by probing western blots of lipid raft proteins using a polyclonal anti-tau antibody (DAKO).
# [2] = biological target: V5 tagged human tau mutant Y197F (human) (UniProt P10636); assay: cell-based or functional assay
# [3] = biological target: V5 tagged human tau mutant Y310F (human) (UniProt P10636); assay: cell-based or functional assay
# [4] = biological target: V5 tagged human tau mutant Y394F (human) (UniProt P10636); assay: cell-based or functional assay
# [5] = biological target: V5 tagged human tau mutant Y18F (human) (UniProt P10636); assay: cell-based or functional assay
# [6] = system: COS-7 cells transfected with V5 tagged human tau; assay: Phosphorylation of tyrosine residues in tau in cultured cells treated with pervanadate; assay type: cell-based; conditions: 20 minutes, Y394-only mutant and wild-type tau
# Description: In a first set of experiments, COS-7 cells were transiently transfected with V5 tagged human tau longest isoform or with V5 tagged mutants of tau where one tyrosine has been replaced by one phenylalanine (named Y18F, Y29F, Y197F, Y310F and Y394F) constructs. In a second set of experiments, COS-7 cells were transiently transfected with the V5 tagged tau (441) construct or with V5 tagged mutants of tau where only one tyrosine is remaining, the four other tyrosines being replaced by phenyalanine (named Y18-only, Y29-only, Y197-only, Y310-only and Y394-only according to the remaining tyrosine). In order to increase tau tyrosine phosphorylation, cells were treated with the tyrosine phosphatase inhibitor pervanadate for 20 minutes. Cells were harvested in NETF buffer (100 mM NaCl, 2 mM EGTA, 50 mM Tris-Cl pH 7,4 and 50 mM NaF) containing 1% NP-40, 2 mM orthovanadate and protease inhibitors. Samples were precleared with 40 μl of protein G-Sepharose beads, and immunoprecipitations were carried out with monoclonal anti-V5 antibodies preadsorbed on protein G-Sepharose beads. Cells were harvested in NETF lysis buffer containing 1% NP-40 and tau was immunoprecipitated using an anti-V5 antibody. […] Quantification was achieved by scanning the autoradiograms with GS710 Calibrated Imaging Densitometer (Bio-Rad) and measurement of relative optical density with Quantity One 4.0.3 software (Bio-Rad).
# [7] = pre-treatment of neuronal cultures with inhibitor before exposure to Aβ
compound,measurement,setting,value
CC(C)(C)n1nc(-c2ccc(Cl)cc2)c2c(N)ncnc21 [PP2],Aβ-induced increase in tyrosine phosphorylation of lipid raft proteins,"[1]; inhibitor given with Aβ treatment, primary rat neuronal cultures, western blot of lipid rafts",abrogated
same,Aβ-induced recruitment of Fyn to lipid rafts,[1]; [7],blocking of the recruitment
same,Aβ-induced recruitment/partitioning of tau into lipid rafts,[1]; [7],abrogated; also recorded: blocking of the recruitment
"AblΔXB (a constitutively active form of Abl, with deletion of most of the SH3 domain) (enzyme)","tyrosine phosphorylation of immunoprecipitated tau (4G10 Western blot), CHO cells co-transfected with AblΔXB (% of the wild-type control)",[2],70
same,"tyrosine phosphorylation of immunoprecipitated tau (4G10 Western blot), CHO cells co-transfected with AblΔXB (% of the wild-type control)",[3],70
same,"tyrosine phosphorylation of immunoprecipitated tau (4G10 Western blot), CHO cells co-transfected with AblΔXB (% of the wild-type control)",[4],25
Aβ1-42: fibrillar amyloid β-peptide 1-42 used to treat neurons,tyrosine phosphorylation of neuronal protein components of lipid rafts,[1]; peptide treatment of primary rat neuronal cultures,rapid increase
Fyn tyrosine kinase (expressed from Fyn cDNA in CHO cells) (from UniProt P06241 1-537) (enzyme),"tyrosine phosphorylation of immunoprecipitated tau (4G10 Western blot), CHO cells co-transfected with Fyn (% of the wild-type control)",[5],50
same,"tyrosine phosphorylation of immunoprecipitated tau (4G10 Western blot), CHO cells co-transfected with Fyn (% of the wild-type control)",[3],50
pervanadate,tyrosine phosphorylation of tau (4G10 western on immunoprecipitated tau),[6],induces an increase in tyrosine phosphorylation
